Assay results as given in ChEMBL document CHEMBL3853262 (Medchemcomm, 2016).
Activity calls are given as the source filed them. No cut-off for these calls is given here.

Key:
THP-1 [1] = test: Proapoptotic activity in human THP1 cells assessed as viable cells at 25 uM after 3 hrs by annexin V/propidium iodide staining-based capillary cytometric method relative to control; assay type: functional; conditions: THP-1, 3 h, read-out: Activity
THP-1 [2] = test: Proapoptotic activity in human THP1 cells assessed as early apoptotic cells at 25 uM after 3 hrs by annexin V/propidium iodide staining-based capillary cytometric method relative to control; assay type: functional
THP-1 [3] = test: Induction of apoptosis in human THP1 cells assessed as late apoptotic cells at 25 uM after 4 hrs in presence of pan caspase inhibitor Z-VAD-fmk by annexin V/propidium iodide staining-based capillary cytometric method (reference value: 0.34%); assay type: functional
THP-1 [4] = test: Proapoptotic activity in human THP1 cells assessed as late apoptotic cells at 25 uM after 3 hrs by annexin V/propidium iodide staining-based capillary cytometric method relative to control; assay type: functional
THP-1 [5] = test: Proapoptotic activity in human THP1 cells assessed as necrotic cells at 25 uM after 3 hrs by annexin V/propidium iodide staining-based capillary cytometric method relative to control; assay type: functional
THP-1 [6] = test: Proapoptotic activity in human THP1 cells assessed as early apoptotic cells at 25 uM after 5 hrs by annexin V/propidium iodide staining-based capillary cytometric method relative to control; assay type: functional
THP-1 [7] = test: Proapoptotic activity in human THP1 cells assessed as necrotic cells at 25 uM after 5 hrs by annexin V/propidium iodide staining-based capillary cytometric method relative to control; assay type: functional
THP-1 [8] = test: Proapoptotic activity in human THP1 cells assessed as early apoptotic cells at 25 uM after 1 hr by annexin V/propidium iodide staining-based capillary cytometric method relative to control; assay type: functional
NTERA-2-cl-D1 [9] = test: Proapoptotic activity in human NT2/D1 cells assessed as necrotic cells at 25 uM after 5 hrs by annexin V/propidium iodide staining-based capillary cytometric method relative to control; assay type: functional
NTERA-2-cl-D1 [10] = test: Proapoptotic activity in human NT2/D1 cells assessed as viable cells at 25 uM after 1 hr by annexin V/propidium iodide staining-based capillary cytometric method relative to control; assay type: functional; conditions: NTERA-2-cl-D1, 1 h, read-out: Activity
NTERA-2-cl-D1 [11] = test: Proapoptotic activity in human NT2/D1 cells by annexin V-FITC/propidium iodide staining-based capillary cytometric method; assay type: functional, cell-based
THP-1 [12] = test: Induction of apoptosis in human THP1 cells assessed as late necrotic cells at 25 uM after 4 hrs in presence of pan caspase inhibitor Z-VAD-fmk by annexin V/propidium iodide staining-based capillary cytometric method (reference value: 0.04%); assay type: functional
THP-1 [13] = test: Proapoptotic activity in human THP1 cells assessed as viable cells at 25 uM after 7 hrs by annexin V/propidium iodide staining-based capillary cytometric method relative to control; assay type: functional; conditions: THP-1, 7 h, read-out: Activity
THP-1 [14] = test: Induction of DNA fragmentation in human THP1 cells at 25 uM after 6 to 24 hrs by propidium iodide/RNase staining-based capillary cytometric method; assay type: functional, cell-based
NTERA-2-cl-D1 [15] = test: Induction of apoptosis in human NT2/D1 cells assessed as late apoptotic cells at 25 uM after 4 hrs by annexin V/propidium iodide staining-based capillary cytometric method (reference value: 0.70%); assay type: functional
THP-1 [16] = test: Proapoptotic activity in human THP1 cells assessed as late apoptotic cells at 25 uM after 5 hrs by annexin V/propidium iodide staining-based capillary cytometric method relative to control; assay type: functional
THP-1 [17] = test: Induction of apoptosis in human THP1 cells assessed as activation of caspase 3/7 by measuring DNA fragmentation at 25 uM after 3 hrs by 7-AAD staining-based capillary cytometric method; assay type: functional, cell-based
NTERA-2-cl-D1 [18] = test: Induction of DNA fragmentation in human NT2/D1 cells at 25 uM after 6 to 24 hrs by propidium iodide/RNase staining-based capillary cytometric method; assay type: functional, cell-based
NTERA-2-cl-D1 [19] = test: Induction of apoptosis in human NT2/D1 cells assessed as activation of caspase 3/7 by measuring DNA fragmentation at 25 uM after 3 hrs by 7-AAD staining-based capillary cytometric method; assay type: functional, cell-based
NTERA-2-cl-D1 [20] = test: Proapoptotic activity in human NT2/D1 cells assessed as late apoptotic cells at 25 uM after 3 hrs by annexin V/propidium iodide staining-based capillary cytometric method relative to control; assay type: functional
NTERA-2-cl-D1 [21] = test: Proapoptotic activity in human NT2/D1 cells assessed as necrotic cells at 25 uM after 1 hr by annexin V/propidium iodide staining-based capillary cytometric method relative to control; assay type: functional
NTERA-2-cl-D1 [22] = test: Proapoptotic activity in human NT2/D1 cells assessed as early apoptotic cells at 25 uM after 3 hrs by annexin V/propidium iodide staining-based capillary cytometric method relative to control; assay type: functional
THP-1 [23] = test: Induction of apoptosis in human THP1 cells assessed as late apoptotic cells at 25 uM after 4 hrs by annexin V/propidium iodide staining-based capillary cytometric method (reference value: 0.34%); assay type: functional
THP-1 [24] = test: Induction of apoptosis in human THP1 cells assessed as […] cells at 25 uM after 4 hrs by annexin V/propidium iodide staining-based capillary cytometric method (reference value: 96.40%); assay type: functional
NTERA-2-cl-D1 [25] = test: Proapoptotic activity in human NT2/D1 cells assessed as viable cells at 25 uM after 7 hrs by annexin V/propidium iodide staining-based capillary cytometric method relative to control; assay type: functional; conditions: NTERA-2-cl-D1, 7 h, read-out: Activity
NTERA-2-cl-D1 [26] = test: Induction of apoptosis in human NT2/D1 cells assessed as necrotic cells at 25 uM after 4 hrs by annexin V/propidium iodide staining-based capillary cytometric method (reference value: 0.10%); assay type: functional
THP-1 [27] = test: Proapoptotic activity in human THP1 cells assessed as late apoptotic cells at 25 uM after 1 hr by annexin V/propidium iodide staining-based capillary cytometric method relative to control; assay type: functional
THP-1 [28] = test: Induction of apoptosis in human THP1 cells assessed as late necrotic cells at 25 uM after 4 hrs by annexin V/propidium iodide staining-based capillary cytometric method (reference value: 0.04%); assay type: functional
NTERA-2-cl-D1 [29] = test: Proapoptotic activity in human NT2/D1 cells assessed as necrotic cells at 25 uM after 7 hrs by annexin V/propidium iodide staining-based capillary cytometric method relative to control; assay type: functional

SMILES: CNc1nc(-c2cccc(NC(=O)c3cc4ccccc4[nH]3)c2)c[nH]1.Cl
- viability at 25 µM (THP-1 [1]): 77.3%
- Activity (THP-1 [2]): 5.81%
- Activity (THP-1 [3]): 17.2%
- Activity (THP-1 [4]): 16.53%
- Activity (THP-1 [5]): 0.3%
- Activity (THP-1 [6]): 33.25%
- Activity (THP-1 [7]): 0.1%
- Activity (THP-1 [8]): 1.45%
- Activity (NTERA-2-cl-D1 [9]): 0.6%
- viability at 25 µM (NTERA-2-cl-D1 [10]): 87.7%
- EC50 (NTERA-2-cl-D1 [11]): 11 µM
- Activity (THP-1 [12]): 0.1%
- viability at 25 µM (THP-1 [13]): 17.8%
- Activity (THP-1 [14]): Active
- Activity (NTERA-2-cl-D1 [15]): 5.16%
- Activity (THP-1 [16]): 38.05%
- Activity (THP-1 [17]): Active
- Activity (NTERA-2-cl-D1 [18]): Active
- Activity (NTERA-2-cl-D1 [19]): Active
- Activity (NTERA-2-cl-D1 [20]): 3.24%
- Activity (NTERA-2-cl-D1 [21]): 0.11%
- Activity (NTERA-2-cl-D1 [22]): 22.77%
- Activity (THP-1 [23]): 89.44%
- Activity (THP-1 [24]): 5.34%
- viability at 25 µM (NTERA-2-cl-D1 [25]): 31.2%
- Activity (NTERA-2-cl-D1 [26]): 0.3%
- Activity (THP-1 [27]): 2.66%
- Activity (THP-1 [28]): 0.26%
- Activity (NTERA-2-cl-D1 [29]): 0%
